Experimental data as given in ChEMBL document CHEMBL5154661, “Novel 2-phenyl-3-(Pyridin-2-yl) thiazolidin-4-one derivatives as potent inhibitors for proliferation of osteosarcoma cells in vitro and in vivo” (Eur J Med Chem, 2022).
Active and inactive are the calls of the source. The rule behind the calls is not given here.

Key:
[1] = Toxicity in ICR mouse at 800 mg/kg, ip; assay type: organism-based; conditions: in vivo
[2] = Half life in male ICR mouse at 62.5 mg/kg, ip measured upto 24 hrs by LC-MS/MS analysis; assay type: ADME, organism-based; conditions: in vivo
HOS-TE85 [3] = assay: Antiproliferative activity against human MNNG/HOS cells assessed as cell growth inhibition measured after 72 hrs by CCK-8 assay; assay type: functional, cell-based; conditions: HOS-TE85, 72 h
U2OS = assay: Antiproliferative activity against human U2OS cells assessed as cell growth inhibition measured after 72 hrs by CCK-8 assay; assay type: functional, cell-based
143B = assay: Antiproliferative activity against human 143B cells assessed as cell growth inhibition measured after 72 hrs by CCK-8 assay; assay type: functional, cell-based
SW1353 = assay: Antiproliferative activity against human SW1353 cells assessed as cell growth inhibition measured after 72 hrs by CCK-8 assay; assay type: functional, cell-based; conditions: SW1353, 72 h
HOS = assay: Antiproliferative activity against human HOS cells assessed as cell growth inhibition measured after 72 hrs by CCK-8 assay; assay type: functional, cell-based
SJSA-1 [4] = assay: Antiproliferative activity against human SJSA-1 cells assessed as cell growth inhibition measured after 72 hrs by CCK-8 assay; assay type: functional, cell-based; conditions: SJSA-1, 72 h
MG-63 [5] = assay: Antiproliferative activity against human MG-63 cells assessed as cell growth inhibition measured after 72 hrs by CCK-8 assay; assay type: functional, cell-based; conditions: MG-63, 72 h
SAOS-2 = assay: Antiproliferative activity against human SAOS-2 cells assessed as growth inhibition measured after 72 hrs by CCK-8 assay; assay type: functional, cell-based; conditions: SAOS-2, 72 h
[6] = Cytotoxicity against human BMSC cells assessed as growth inhibition measured after 72 hrs by CCK-8 assay; assay type: toxicity, cell-based, HBMSC
[7] = Cytotoxicity against human GES1 cells assessed as growth inhibition measured after 72 hrs by CCK-8 assay; assay type: toxicity, cell-based
[8] = Half life in male ICR mouse at 12.5 mg/kg, iv measured upto 24 hrs by LC-MS/MS analysis; assay type: ADME, organism-based; conditions: in vivo
[9] = AUC(0 to infinity) in male ICR mouse at 12.5 mg/kg, iv measured upto 24 hrs by LC-MS/MS analysis; assay type: ADME, organism-based; design: time < 24 hrs, dose 12.5 mg/kg, route iv; conditions: in vivo
[10] = Plasma clearance in male ICR mouse at 12.5 mg/kg, iv measured upto 24 hrs by LC-MS/MS analysis; assay type: ADME, organism-based
[11] = Cmax in male ICR mouse at 62.5 mg/kg, ip measured upto 24 hrs by LC-MS/MS analysis; assay type: ADME, organism-based; design: dose 62.5 mg/kg, time < 24 hrs, route ip; conditions: in vivo
[12] = AUC(0 to infinity) in male ICR mouse at 62.5 mg/kg, ip measured upto 24 hrs by LC-MS/MS analysis; assay type: ADME, organism-based; design: dose 62.5 mg/kg, time < 24 hrs, route ip; conditions: in vivo
[13] = Bioavailability in male ICR mouse at 62.5 mg/kg, ip measured upto 24 hrs by LC-MS/MS analysis; assay type: ADME, organism-based; conditions: in vivo
SJSA-1 [14] = assay: Antiproliferative activity against human SJSA-1 cells with increase MYOF expression assessed as cell growth inhibition incubated for 72 hrs by CCK-8 assay; assay type: functional, cell-based; conditions: SJSA-1, 72 h
MG-63 [15] = assay: Antiproliferative activity against human MG-63 cells with increase MYOF expression assessed as cell growth inhibition incubated for 72 hrs by CCK-8 assay; assay type: functional, cell-based; conditions: MG-63, 72 h
HOS-TE85 [16] = assay: Antiproliferative activity against human MNNG/HOS cells with increase MYOF expression assessed as cell growth inhibition incubated for 72 hrs by CCK-8 assay; assay type: functional, cell-based; conditions: HOS-TE85, 72 h
HOS-TE85 [17] = assay: Antiproliferative activity against human MNNG/HOS cells with low MYOF expression assessed as cell growth inhibition incubated for 72 hrs by CCK-8 assay; assay type: functional, cell-based; conditions: HOS-TE85, 72 h
K562 = assay: Antiproliferative activity against human K562 cells with low MYOF expression assessed as cell growth inhibition incubated for 72 hrs by CCK-8 assay; assay type: functional, cell-based; conditions: K562, 72 h
HL-60 = assay: Antiproliferative activity against human HL-60 cells with low MYOF expression assessed as cell growth inhibition incubated for 72 hrs by CCK-8 assay; assay type: functional, cell-based; conditions: HL-60, 72 h
HOS-TE85 [18] = assay: Cell cycle arrest at human MNNG/HOS cells assessed as accumulation at G0/G1 phase at 5 uM measured after 24 hrs by propidium iodide staining based flow cytometry(Rvb=37.12%); assay type: functional
HOS-TE85 [19] = assay: Cell cycle arrest at human MNNG/HOS cells assessed as accumulation at S phase at 5 uM measured after 24 hrs by propidium iodide staining based flow cytometry(Rvb=38.9%); assay type: functional
HOS-TE85 [20] = assay: Cell cycle arrest in human MNNG/HOS cells assessed as accumulation at G2/M phase at 5 uM measured after 24 hrs by propidium iodide staining based flow cytometry(Rvb=21.2%); assay type: functional
HOS-TE85 [21] = assay: Inhibition of cell migration in human MNNG/HOS cells at 20 nM measured after 24 hrs by wound healing assay relative to control; assay type: functional
HOS-TE85 [22] = assay: Inhibition of cell migration in human MNNG/HOS cells at 5 nM measured after 24 hrs by transwell assay; assay type: functional
HOS-TE85 [23] = assay: Antitumor activity against human MNNG/HOS cells xenografted in female BALB/c nude mouse assessed as tumor growth inhibition at 62.5 mg/kg, ip administered twice per day for 18 days relative to control; assay type: functional; conditions: HOS-TE85, 432 h, time 18 day, read-out: TGI
[24] = Toxicity in BALB/c nude mouse xenografted with human MNNG/HOS cells assessed as body weight loss at 62.5 mg/kg, ip administered twice per day for 18 days; assay type: organism-based, HOS-TE85; conditions: in vivo, 432 h, time 18 day
HOS-TE85 [25] = assay: Antitumor activity against human MNNG/HOS cells xenografted in BALB/c nude mouse assessed as reduction in tumor weight at 62.5 mg/kg, ip administered twice per day for 18 days; assay type: functional, organism-based; conditions: time 18.0 day
[26] = Toxicity in BALB/c nude mouse xenografted with human MNNG/HOS cells assessed as effect on heart morphology by H and E staining assay at 62.5 mg/kg, ip administered twice per day for 18 days; assay type: organism-based, HOS-TE85; conditions: in vivo, 432 h, time 18 day
[27] = Toxicity in BALB/c nude mouse xenografted with human MNNG/HOS cells assessed as effect on liver morphology by H and E staining assay at 62.5 mg/kg, ip administered twice per day for 18 days; assay type: organism-based, HOS-TE85; conditions: in vivo, 432 h, time 18 day
[28] = Toxicity in BALB/c nude mouse xenografted with human MNNG/HOS cells assessed as effect on kidney morphology by H and E staining assay at 62.5 mg/kg, ip administered twice per day for 18 days; assay type: organism-based, HOS-TE85; conditions: in vivo, 432 h, time 18 day
[29] = Toxicity in BALB/c nude mouse xenografted with human MNNG/HOS cells assessed as effect on spleen morphology by H and E staining assay at 62.5 mg/kg, ip administered twice per day for 18 days; assay type: organism-based, HOS-TE85; conditions: in vivo, 432 h, time 18 day
[30] = Toxicity in ICR mouse at 300 mg/kg, ip administered daily for a week; assay type: organism-based; conditions: in vivo
[31] = Toxicity in BALB/c nude mouse xenografted with human MNNG/HOS cells assessed as effect on ratio of heart weight to body weight at 62.5 mg/kg, ip administered twice per day for 18 days; assay type: organism-based, HOS-TE85; conditions: in vivo, 432 h, time 18 day
[32] = Toxicity in BALB/c nude mouse xenografted with human MNNG/HOS cells assessed as effect on ratio of liver weight to body weight at 62.5 mg/kg, ip administered twice per day for 18 days; assay type: organism-based, HOS-TE85; conditions: in vivo, 432 h, time 18 day
[33] = Toxicity in BALB/c nude mouse xenografted with human MNNG/HOS cells assessed as effect on ratio of kidney weight to body weight at 62.5 mg/kg, ip administered twice per day for 18 days; assay type: organism-based, HOS-TE85; conditions: in vivo, 432 h, time 18 day
[34] = Toxicity in BALB/c nude mouse xenografted with human MNNG/HOS cells assessed as effect on ratio of spleen weight to body weight at 62.5 mg/kg, ip administered twice per day for 18 days; assay type: organism-based, HOS-TE85; conditions: in vivo, 432 h, time 18 day
[35] = Drug distribution in plasma of BALB/c nude mouse xenografted with human MNNG/HOS cells at 62.5 mg/kg,ip measured after 12 hrs; assay type: ADME, organism-based, HOS-TE85
[36] = Drug distribution in tumor of BALB/c nude mouse xenografted with human MNNG/HOS cells at 62.5 mg/kg,ip measured after 12 hrs; assay type: ADME, organism-based, Neoplasm, HOS-TE85; conditions: read-out: Ct
[37] = Half life in male ICR mouse at 5 mg/kg, iv measured upto 24 hrs by LC-MS/MS analysis; assay type: ADME, organism-based; conditions: in vivo
[38] = Oral bioavailability in male ICR mouse at 25 mg/kg measured upto 24 hrs by LC-MS/MS analysis; assay type: ADME, organism-based; conditions: in vivo

## Cc1ccnc(N2C(=O)CS[C@@H]2c2cccc(C(=O)NCCCCn3cccn3)c2)c1
[1]
  Activity: Non-Toxic
[2]
  half-life: 38.5 min
HOS-TE85 [3]
  IC50: 0.0219 µM
U2OS
  IC50: 0.0265 µM
143B
  IC50: 0.0295 µM
SW1353
  IC50: 0.0199 µM
HOS
  IC50: 0.0509 µM
SJSA-1 [4]
  IC50: 0.0622 µM
MG-63 [5]
  IC50: 0.0149 µM
SAOS-2
  IC50: 0.0268 µM
[6]
  IC50 at 72 h: > 10 µM
[7]
  IC50 at 72 h: > 20 µM
[8]
  half-life: 3.66 min
[9]
  AUC(0-inf): 3.23 µg·h/mL
[10]
  clearance: 4.01 L/h/kg
[11]
  Cmax: 20.5 µg/mL
[12]
  AUC(0-inf): 8.41 µg·h/mL
[13]
  bioavailability: 52.1%
SJSA-1 [14]
  IC50: 0.0622 µM
MG-63 [15]
  IC50: 0.0149 µM
HOS-TE85 [16]
  IC50: 0.0316 µM
HOS-TE85 [17]
  IC50: 0.0352 µM
K562
  IC50: 0.0281 µM
HL-60
  IC50: 0.019 µM
HOS-TE85 [18]
  Activity: 59.69%
HOS-TE85 [19]
  Activity: 30.1%
HOS-TE85 [20]
  Activity: 10.21%
HOS-TE85 [21]
  inhibition at 0.02 µM: 50%
HOS-TE85 [22]
  inhibition at 0.005 µM: 60%
HOS-TE85 [23]
  inhibition in vivo at 62.5 mg/kg: 52.9%
[24]
  Activity: Non-Toxic
HOS-TE85 [25]
  Activity: Active
[26]
  Activity: Non-Toxic
[27]
  Activity: Non-Toxic
[28]
  Activity: Non-Toxic
[29]
  Activity: Non-Toxic
[30]
  Activity: Non-Toxic
[31]
  Activity: Non-Toxic
[32]
  Activity: Non-Toxic
[33]
  Activity: Non-Toxic
[34]
  Activity: Non-Toxic
[35]
  concentration at 12 h: 0.0555 µM
[36]
  concentration at 12 h: 0.11 µM
[37]
  half-life: 23.4 min
[38]
  bioavailability: 0.36%
